Where a name gives a salt, the structure may show the parent alone. Read-outs that look alike come from different tables or passages of the source.
What was measured:
Set-up in all cases: species or system AML cell lines (8); Primary HTS, single concentration about 10 uM, Cell Titer Glo viability; log10 luminescence, per cent inhibition relative to cycloheximide control
Conditions in all cases: 72 h, relative to cycloheximide control, log10 luminescence, inhibitor
[1] = tested on: CHRF288-11
[2] = tested on: CMK
[3] = tested on: CMS
[4] = tested on: M07e
[5] = tested on: ML-2
[6] = tested on: MOLM-13
[7] = tested on: MV4-11
[8] = tested on: U937

Structure (SMILES)	CHRF288-11 %inh ([1]; CHRF288-11 %inh, 10 µM)	CMK %inh ([2]; CMK %inh, 10 µM)	CMS %inh ([3]; CMS %inh, 10 µM)	M07e %inh ([4]; M07e %inh, 10 µM)	ML-2 %inh ([5]; ML-2 %inh, 10 µM)	MOLM-13 %inh ([6]; MOLM-13 %inh, 10 µM)	MV4-11 %inh ([7]; MV4-11 %inh, 10 µM)	U937 %inh ([8]; U937 %inh, 10 µM)	CHRF288-11 %inh [1]	CMK %inh [2]	CMS %inh [3]	M07e %inh [4]	ML-2 %inh [5]	MOLM-13 %inh [6]	MV4-11 %inh [7]	U937 %inh [8]
CCOC(=O)C1=C(C)NC(C)=C(C(=O)OCC)C1c1ccccc1/C=C/C(=O)OC(C)(C)C [SJ000541098-2, LACIDIPINE]	-1.312%	1.983%	-2.509%	-0.9057%	5.24%	10.16%	6.96%	12.91%	–	–	–	–	–	–	–	–
CC(=O)[C@H]1CC[C@H]2[C@@H]3CC=C4C[C@@H](O)CC[C@]4(C)[C@H]3CC[C@]12C [SJ000281777-6, PREGNENOLONE]	–	–	–	–	–	–	–	–	0.2511%	-1.238%	6.885%	1.706%	0.5574%	2.085%	6.672%	3.219%
CO[C@H]1/C=C/O[C@@]2(C)Oc3c(C)c(O)c4c(O)c(c(/C=N/N5CCN(C)CC5)c(O)c4c3C2=O)NC(=O)/C(C)=C\C=C\[C@H](C)[C@H](O)[C@@H](C)[C@@H](O)[C@@H](C)[C@H](OC(C)=O)[C@@H]1C [SJ000000850-5, RIFAMPIN | RIFAMPICIN]	0.3238%	-4.011%	9.631%	0.4502%	5.116%	-1.813%	3.37%	3.295%	–	–	–	–	–	–	–	–
CCCCCCCN(CC)CCCC(O)c1ccc(NS(C)(=O)=O)cc1 (centres unmarked) [SJ000556760-1, IBUTILIDE FUMARATE]	–	–	–	–	–	–	–	–	6.024%	2.977%	0.3403%	2.78%	-1.379%	2.626%	3.1%	0.6889%
COc1cc(Nc2nccc(Nc3ccc4c(C)n[nH]c4c3)n2)cc(OC)c1OC [SJ000573319-1, U17574/67/1]	–	–	–	–	–	–	–	–	80.56%	114.1%	87.58%	71.44%	29.66%	98.77%	77.98%	62.59%
NS(=O)(=O)c1cc2c(cc1Cl)NCNS2(=O)=O [SJ000285785-7, HYDROCHLOROTHIAZIDE]	–	–	–	–	–	–	–	–	2.834%	2.395%	1.584%	-2.196%	4.295%	5.809%	1.232%	-0.1321%
CCCCCS(=O)(=O)CCCCCCCCCCn1c(-c2ccc(O)cc2)c(C)c2cc(O)ccc21 [SJ000546504-1, ZK 164015]	–	–	–	–	–	–	–	–	8.284%	21%	7.105%	14.67%	14.83%	28.37%	19.87%	10.37%
Cc1nnc(-c2ccc(C)c(-c3ccc(C(=O)Nc4cccc(C#N)c4)cc3)c2)o1 [SJ000573195-1, R4373/145/1]	–	–	–	–	–	–	–	–	-2.997%	1.609%	-1.248%	-0.9532%	2.033%	1.779%	0.5717%	-2.444%
Cn1c(=O)c(Oc2cccc(F)c2)cc2cnc(NC3CCOCC3)nc21 [SJ000580988-1]	–	–	–	–	–	–	–	–	0.6759%	1.711%	1.491%	0.7165%	-0.3057%	93.55%	0.1701%	1.883%
Nc1nccc(-c2c(-c3ccc(F)cc3)nn3cc(C(F)(F)F)ccc23)n1 [SJ000573142-1, U14741/95/1]	–	–	–	–	–	–	–	–	1.132%	-0.4076%	-0.8913%	93.92%	1.904%	0.5656%	-1.787%	-1.917%
COc1cccc(-c2c[nH]c3c(N/N=C/c4ccncc4)ncnc23)c1 [SJ000573184-1, U18675/6/1]	–	–	–	–	–	–	–	–	52.41%	96.73%	90.74%	38.1%	19.51%	59.82%	58.64%	14.24%
CCOC(=O)OC(C)OC(=O)[C@@H]1N2C(=O)[C@@H](NC(=O)[C@H](N)c3ccccc3)[C@H]2SC1(C)C (some centres unmarked) [SJ000285946-4, BACAMPICILLIN HYDROCHLORIDE]	–	–	–	–	–	–	–	–	-3.08%	-5.01%	-1.038%	-1.353%	-0.2443%	6.375%	-1.634%	-1.553%
COc1c(N2CCNC(C)C2)c(F)cc2c(=O)c(C(=O)O)cn(C3CC3)c12 (centres unmarked) [SJ000286066-3, GATIFLOXACIN]	–	–	–	–	–	–	–	–	7.116%	1.598%	-1.278%	0.9683%	1.743%	8.563%	-0.7209%	2.127%
C[C@H]1O[C@@H](O[C@H]2[C@@H](O)C[C@H](O[C@H]3[C@@H](O)C[C@H](O[C@H]4CC[C@@]5(C)[C@H](CC[C@@H]6[C@@H]5CC[C@]5(C)[C@@H](C7=CC(=O)OC7)CC[C@]65O)C4)O[C@@H]3C)O[C@@H]2C)C[C@H](O)[C@@H]1O [SJ000285233-5, DIGITOXIN]	112.4%	108.7%	97.86%	112.2%	58.4%	87.24%	76.58%	78.87%	–	–	–	–	–	–	–	–
Fc1ccc(-c2nn3ncccc3c2-c2ccnc(Nc3ccc4c(c3)OCCO4)n2)cc1 [SJ000573081-1, U18020/136/2]	–	–	–	–	–	–	–	–	0.4339%	3.915%	13.71%	1.748%	-1.741%	1.143%	14.42%	35.33%
CC(C)Nc1cccnc1N1CCN(C(=O)c2cc3cc(NS(C)(=O)=O)ccc3[nH]2)CC1 [SJ000565159-1, DELAVIRDINE MESYLATE]	–	–	–	–	–	–	–	–	-4.194%	-2.785%	-2.71%	-1.136%	-1.959%	5.504%	1.25%	0.4896%
